Experimental data from patent US7816523B2, “Potentiators of glutamate receptors” (Eli Lilly and Company, priority 2004, dated 2010).

Tests used:
[1] = target: T1, human mGlu2 receptors (Homo sapiens, UniProt Q14416); assay: Potentiation of glutamate-induced increase in intracellular calcium with a mGlu2 expressing cell line (FLIPR); format: cell-based; settings: with submaximal glutamate-site agonist (e.g. 1 μM glutamate)
T1 construct: expressed in transfected cells; host or cells: RGT cells (co-transfected with the glutamate/aspartate transporter GLAST and stably transfected with Galpha15)
T1 sequence (Q14416 19-872): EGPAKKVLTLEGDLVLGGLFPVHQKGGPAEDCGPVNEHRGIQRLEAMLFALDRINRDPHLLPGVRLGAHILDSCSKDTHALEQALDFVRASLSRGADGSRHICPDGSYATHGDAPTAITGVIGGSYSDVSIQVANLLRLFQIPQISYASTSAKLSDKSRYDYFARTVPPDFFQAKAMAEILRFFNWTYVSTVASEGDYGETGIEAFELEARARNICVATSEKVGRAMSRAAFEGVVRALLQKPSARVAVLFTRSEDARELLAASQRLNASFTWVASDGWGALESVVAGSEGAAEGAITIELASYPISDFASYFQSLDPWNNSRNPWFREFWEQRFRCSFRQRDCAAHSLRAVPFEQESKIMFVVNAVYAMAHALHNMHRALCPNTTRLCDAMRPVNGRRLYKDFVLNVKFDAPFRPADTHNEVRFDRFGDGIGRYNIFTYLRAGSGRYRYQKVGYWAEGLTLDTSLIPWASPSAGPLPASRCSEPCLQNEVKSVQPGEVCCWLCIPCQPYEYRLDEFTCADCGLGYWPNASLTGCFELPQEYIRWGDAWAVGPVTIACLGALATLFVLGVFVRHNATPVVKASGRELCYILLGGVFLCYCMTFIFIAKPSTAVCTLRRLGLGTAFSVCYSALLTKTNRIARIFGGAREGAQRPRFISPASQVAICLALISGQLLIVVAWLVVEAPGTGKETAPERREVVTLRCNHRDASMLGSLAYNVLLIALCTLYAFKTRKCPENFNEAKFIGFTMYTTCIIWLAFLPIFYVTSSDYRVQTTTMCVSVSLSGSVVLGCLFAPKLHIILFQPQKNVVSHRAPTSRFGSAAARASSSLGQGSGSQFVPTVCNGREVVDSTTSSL
Protocol: Potentiation of Glutamate-Induced Increase in Intracellular Calcium with a mGlu2 Expressing Cell Line
Cell lines expressing human mGlu2 receptors are derived as previously described (Desai, Burnett, Mayne, Schoepp, Mol. Pharmacol. 48, 648-657, 1995) and cultured in DMEM with 5% dialyzed fetal bovine serum, 1 mM glutamine, 1 mM sodium pyruvate, 50 μg/mL Geneticin G418, and 0.2 mg/mL hygromycin B. Confluent cultures are passaged weekly. These cells are referred to as RGT cells for Rat Glutamate Transporter, and have been co-transfected with the glutamate/aspartate transporter GLAST. The RGT cell line expressing the mGlu2 receptors is stably transfected with the promiscuous G-protein, Galpha15 to change the signaling pathway to the mGlu2 receptor to one that could be easily measured through release of intracellular calcium. Thus, intracellular calcium levels are monitored before and after the addition of drugs on a Fluorometric Imaging Plate Reader (i.e. FLIPR, Molecular Devices). The following buffer is used throughout as an assay buffer: 10 mM KCl, 138 mM NaCl, 5 mM Ca Cl2, 1 mM MgCl2, 4 mM Na H2PO4, 10 mM Glucose, 10 mM HEPES, pH 7.4. Cells that had been plated 48 hours prior at a density of 30-40,000 cells per well in a 96-well plate are loaded with a calcium-sensitive dye for 90 minutes at 25° C. Fluo-3 (2 mM in DMSO, Molecular Probes) are mixed with a equal volume of 10% pluronic acid in DMSO, and diluted to 8 μM into the buffer described above containing 10% fetal bovine serum to make the loading buffer. Following loading of the cells, the loading buffer is removed and replaced with assay buffer prior to drug addition and monitoring on the FLIPR. The resulting signal from the addition of compounds of formula (I) and submaximal concentrations of a glutamate-site agonist (e.g. 1 μM glutamate) is determined by taking the difference of the maximal fluorescent peak height minus the background fluorescence in each well and expressing the results as a percent of the signal seen with a maximal glutamate response (30 μM glutamate, typically about 30-50,000 Relative Fluorescent Units). Least squares curve fitting with a four-parameter equation is then applied to the resulting dose-% response curve to determine the resulting EC50 values.

[2] = target: T2, human CysLT1 receptor (Homo sapiens, UniProt Q9Y271); assay: Antagonism of LTD4-induced increase in intracellular calcium within a CysLT1 receptor expressing cell line (FLIPR); format: cell-based; settings: 6 nM LTD4; read-out: antagonism of CysLT1 receptors, IC50
T2 construct: expressed in transfected cells; host or cells: AV12-664 (ATCC-9595)
T2 sequence (Q9Y271 1-337): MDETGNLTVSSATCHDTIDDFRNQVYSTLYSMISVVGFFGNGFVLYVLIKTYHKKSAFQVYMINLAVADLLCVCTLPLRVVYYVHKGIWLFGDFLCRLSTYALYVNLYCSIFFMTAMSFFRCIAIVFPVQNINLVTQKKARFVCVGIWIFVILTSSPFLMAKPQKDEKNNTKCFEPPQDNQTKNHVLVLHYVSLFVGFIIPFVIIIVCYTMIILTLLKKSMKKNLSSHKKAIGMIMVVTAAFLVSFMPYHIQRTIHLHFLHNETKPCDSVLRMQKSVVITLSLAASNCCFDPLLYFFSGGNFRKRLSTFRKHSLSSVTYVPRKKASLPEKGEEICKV
Protocol: Antagonism of Cysteinyl-leukotriene D4 (LTD4) -Induced Increase in Intracellular Calcium within a Cysteinyl-Leukotriene 1 (CysLT1) Receptor Expressing Cell Line
Cell lines expressing the human CysLT1 receptor [AV12-664 (ATCC-9595)] are derived and maintained in culture media: DMEM with 5% dialyzed fetal bovine serum, 1 mM glutamine, and 1 mM sodium pyruvate. Confluent cultures are passaged weekly. Intracellular calcium levels are monitored in the CysLT1-expressing cells with the addition of LTD4, with or without prior exposure to the compounds being tested as antagonists with a Fluorometric Imaging Plate Reader (FLIPR, Molecular Devices). The following buffer is used throughout as an assay buffer: Hanks Buffered Saline Solution without phenol red (GIBCO), with 10 mM HEPES pH 7.4. Cells that had been plated 48 hours prior at a density of 20-25,000 cells per well in a 96-well plate are loaded with a calcium-sensitive dye for 90 minutes at 25° C. Fluo-3 (2 mM in DMSO, Molecular Probes) is mixed with an equal volume of 10% pluronic acid in DMSO, and diluted to 8 μM in the buffer described above containing 10% fetal bovine serum to make the loading buffer. Following loading of the cells, the buffer is removed and replaced with assay buffer prior to drug addition and monitoring on the FLIPR for several minutes. The resulting signal from the addition of 6 nM LTD4 (provides approximately 90% of the maximal signal with 25 nM LTD4) is determined by taking the difference of the maximal fluorescent peak height minus the background fluorescence in each well and expressing the results as a percent of the signal seen without pretreatment of the test compound(s). Least squares curve fitting with a four-parameter equation is applied to the resulting dose-% inhibition curve to determine the resulting IC50 values.

Structure (SMILES)	EC50 [1]	IC50 [2]	melting point
CCCc1c(OCc2ccc(C(F)c3cccc(-c4nnn[nH]4)c3)cc2)ccc(C(C)=O)c1O (single isomer, unassigned; isomer 1) [Example 81, 1-[4-(4-{Fluoro-[3-(1H-tetrazol-5-yl)-phenyl]-methyl}-benzyloxy)-2-hydroxy-3-propyl-phenyl]-ethanone isomer 1]	< 100 nM	< 750 nM	–
CCCc1c(OCc2ccc(C(O)c3cccc(C(=O)O)c3)cc2)ccc(C(C)=O)c1O (single isomer, unassigned; isomer 1) [Example 83, (+)-3-{[4-(4-Acetyl-3-hydroxy-2-propyl-phenoxymethyl)-phenyl]-hydroxy-methyl}-benzoic acid isomer 1]	< 100 nM	< 750 nM	–
CCCc1c(OCc2ccc(C(O)c3ccc(OC)c(-c4nnn[nH]4)c3)cc2)ccc(C(C)=O)c1O (stereo not shown) [Example 47, 1-[2-hydroxy-4-(4-{hydroxy-[4-methoxy-3-(2H-tetrazol-5-yl)-phenyl]-methyl}-benzyloxy)-3-propyl-phenyl]-ethanone]	< 100 nM	< 750 nM	–
CCCc1c(OCc2ccc(Cc3cccc(-c4nn[nH]n4)c3)cc2)ccc(C(C)=O)c1O [Example 60, 1-(2-hydroxy-3-propyl-4-{4-[3-(1H-tetrazol-5-yl)-benzyl]-benzyloxy}-phenyl)-ethanone]	–	< 750 nM	–
CC(=O)c1ccc(OCc2ccc(Cc3cccc(C(=O)O)c3)cc2)c(Cl)c1O [Example 65, 3-[4-(4-Acetyl-2-chloro-3-hydroxy-phenoxymethyl)-benzyl]-benzoic acid]	< 100 nM	< 750 nM	–
CCCc1c(OCc2ccc([C@H](O)c3cccc(C(=O)O)c3)cc2)ccc(C(C)=O)c1O [Example 155, 3-{[4-(4-acetyl-3-hydroxy-2-propyl-phenoxymethyl)-phenyl]-(S)-hydroxymethyl}-benzoic acid]	–	–	198.35 °C
